Measured values: US5981497A, “Utilization of sophorolipids as therapeutically active substances or cosmetic products, in particular for the treatment of the skin” (Institut Francais du Petrole, priority 1995, dated 1999)

Experiments:
[1] = Cytotoxicity on primocultures at 24 hours (neutral red), keratinocytes; format: cell-based; conditions: read-out: Cellular Viability Rate; for viability at 24 h, 1000 µM: 10^-3M; for viability at 24 h, 100 µM: 10^-4M; for viability at 24 h, 10 µM: 10^-5M; for viability at 24 h, 1 µM: 10^-6M
Description: Their innocuousness and their activity make it possible to use them in other stages of healing, namely granulation and epithelialization, by modulating their concentration in the formulas of products that are used. This is possible only because of the low cytotoxicity of sophorolipids, as Tables 3A and 3B show. The toxicity of the products of the invention has been evaluated with a viability test with neutral red on two cellular types of the skin, cells L929 and other fibroblasts of the dermis and cells NCTC 2544 and keratinocytes of the epidermis. The results, which are presented in Tables 3A, 3B, correspond to the rates of cellular viability that are expressed in % relative to the negative test.

[2] = test system: keratinocyte culture (detachment of corneocytes); test: Desquamating test, detachment of corneocytes in vitro; format: cell-based; conditions: for T60-T0 mean difference: p less than 0.001; for activity at 100 µM / activity at 10 µM / activity at 1 µM: Keratinocyte, read-out: %/TN, proportion of detached corneocytes relative to the negative test
Description: Variation coefficient CV is obtained as follows: [formula]
Actually, the therapeutic applications incidentally involve cosmetic applications.

[3] = test system: macrophages (Interleukin-1 release); test: IL-1 released by macrophages (Elisa sandwich test on culture supernatant); format: cell-based
Description: It is known, however, that several factors such as cytokines and growth factors play important roles in the process of wound healing. These factors include the epidermal growth factor (EGF), the fibroblastic growth factor (FGF), the platelet-derived growth factor (PDGF), and the beta transforming growth factor (beta-TGF). In addition to these factors, cytokines such as interleukin-l (IL-1), the tumor necrosis factor (TNF), and interleukin-6 (IL-6) also play important roles in the process of wound healing. These factors act by different methods, in combination with other materials, to induce proliferation of dermal and epidermal elements such as fibroblasts. […] Actually, IL-1 affects the differentiation, growth, and activity of many cellular types in the organism. Within the immune system, IL-1 acts as a second signal that is necessary to activate the IL-2 circuit by the activated T lymphocytes. It also potentiates the action of other cytokines. It contributes to the differentiation of B lymphocytes and to their production of immunoglobulins. It modifies vascular permeability by the release of mediators by the endothelial cells and induces the appearance at their surface of a factor that has a procoagulating activity. Owing to its proliferative effect on the fibroblasts, it intervenes in the repair phase.
To show the effect of activating macrophages by sophorolipids, an Elisa sandwich test was carried out on the supernatant of a culture medium that contained macrophages. […] A negative test was also used.

[4] = target: T1, fibrin clot reconstituted with bovine thrombin and human fibrinogen (Homo sapiens, UniProt P02671+P02675+P02679); test: Fibrinolysis in vitro (lysis of fibrin clot); format: biochemical;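 note: values are percent lysis of the fibrin clot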
T1 sequence (P02671 20-644 isoform P02671-2 limits assumed): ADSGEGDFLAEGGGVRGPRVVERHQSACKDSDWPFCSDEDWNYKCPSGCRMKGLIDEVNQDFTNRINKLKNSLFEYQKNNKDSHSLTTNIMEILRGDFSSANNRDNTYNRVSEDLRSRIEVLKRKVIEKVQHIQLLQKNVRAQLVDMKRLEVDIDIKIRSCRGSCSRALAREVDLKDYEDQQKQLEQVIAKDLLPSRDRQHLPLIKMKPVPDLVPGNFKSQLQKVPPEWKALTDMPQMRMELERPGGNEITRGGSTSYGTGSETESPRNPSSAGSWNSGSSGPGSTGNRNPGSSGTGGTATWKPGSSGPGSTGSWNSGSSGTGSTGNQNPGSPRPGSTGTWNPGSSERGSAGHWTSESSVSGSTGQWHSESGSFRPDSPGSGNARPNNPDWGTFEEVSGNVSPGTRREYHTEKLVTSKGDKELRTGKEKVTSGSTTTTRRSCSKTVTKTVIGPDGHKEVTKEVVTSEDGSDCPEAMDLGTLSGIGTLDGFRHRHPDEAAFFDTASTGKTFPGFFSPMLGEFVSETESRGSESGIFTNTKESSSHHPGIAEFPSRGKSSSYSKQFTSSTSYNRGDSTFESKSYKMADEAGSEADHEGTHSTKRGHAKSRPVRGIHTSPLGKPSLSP
T1 sequence (P02675 45-491 limits assumed): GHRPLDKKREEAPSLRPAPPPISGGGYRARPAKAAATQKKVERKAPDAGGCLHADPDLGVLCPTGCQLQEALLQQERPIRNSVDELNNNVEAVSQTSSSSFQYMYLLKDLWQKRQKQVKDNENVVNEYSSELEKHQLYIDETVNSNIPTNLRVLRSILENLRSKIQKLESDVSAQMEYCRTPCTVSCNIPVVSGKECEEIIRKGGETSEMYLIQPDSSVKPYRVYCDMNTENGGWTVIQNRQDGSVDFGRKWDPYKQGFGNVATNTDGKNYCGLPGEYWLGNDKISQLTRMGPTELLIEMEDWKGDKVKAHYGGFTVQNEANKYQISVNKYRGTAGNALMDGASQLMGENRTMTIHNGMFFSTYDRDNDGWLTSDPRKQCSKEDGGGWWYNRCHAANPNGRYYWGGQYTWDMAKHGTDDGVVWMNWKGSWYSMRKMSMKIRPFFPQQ
T1 sequence (P02679 27-437 isoform P02679-2 limits assumed): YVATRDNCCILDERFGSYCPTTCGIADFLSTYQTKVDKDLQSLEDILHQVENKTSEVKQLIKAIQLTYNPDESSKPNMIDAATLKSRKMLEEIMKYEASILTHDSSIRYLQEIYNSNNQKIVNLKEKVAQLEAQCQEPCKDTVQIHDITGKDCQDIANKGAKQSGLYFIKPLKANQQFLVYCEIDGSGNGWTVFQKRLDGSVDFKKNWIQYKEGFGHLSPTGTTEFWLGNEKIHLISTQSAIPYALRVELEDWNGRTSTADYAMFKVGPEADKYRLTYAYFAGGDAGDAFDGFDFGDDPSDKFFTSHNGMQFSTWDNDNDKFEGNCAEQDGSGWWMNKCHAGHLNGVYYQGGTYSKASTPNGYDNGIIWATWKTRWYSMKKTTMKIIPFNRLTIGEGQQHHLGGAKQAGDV
Description: They also act directly on necrotic plaque. […] This lysis was measured from a fibrin clot that was reconstituted with bovine thrombin and human fibrinogen. The clot that is obtained is covered by 0.5 ml of PBS that contains the sample. The modification of the fibrin gel thickness at 4 hours and 24 hours makes it possible to quantify the fibrinolytic activity. This activity will therefore promote fibrinolysis at wounds, making it possible to act on the bedsore spot and to induce better granulation, as well as better organic tissue oxygenation. Moreover, owing to their surfactant property, sophorolipids make the fragments, molecules, soluble and detach the dead cells from the bed of the wound. This last action is more particularly due to their role in desquamation, which will be described below.

in vitro = conditions: keratinocyte culture
Description: A keratinocyte culture that was placed under conditions that promote the differentiation of cells was selected as a cellular model for the study. The actions of sophorolipids in acid form A, sophorolipids in lactone form B, and lactic acid on the detachment of corneocytes of the selected cellular model were tested in vitro in parallel. In each experiment, the mean difference T60-T0 (corneocytes/ml), as well as the proportion of detached corneocytes, expressed in percentage relative to the negative test (%/TN), were determined.
Cellular viability, measured with the Neutral Red test, is expressed relative to the negative test (%).

Structure (SMILES) | viability at 24 h, 1000 µM [1] | viability at 24 h, 100 µM [1] | viability at 24 h, 10 µM [1] | viability at 24 h, 1 µM [1] | T60-T0 mean difference ([2]; 10^-4M) | T60-T0 mean difference ([2]; 10^-5M) | T60-T0 mean difference ([2]; 10^-6M) | activity at 100 µM ([2]; 10^-4M) | activity at 10 µM ([2]; 10^-5M) | activity at 1 µM ([2]; 10^-6M) | Concentrations IL-1 released by macrophages ([3]; 10^-4M) | Concentrations IL-1 released by macrophages ([3]; 10^-5M) | Concentrations IL-1 released by macrophages ([3]; 10^-6M) | viability at 1 µM (in vitro) | viability at 10 µM (in vitro) | viability at 100 µM (in vitro) | further results
CC1CCCCCC/C=C\CCCCCCCC(=O)O[C@H]2[C@H](O)[C@@H](O)[C@H](O[C@H]3[C@H](O1)O[C@H](CO)[C@@H](O)[C@@H]3O)O[C@@H]2CO (stereo partly drawn) [Sophorolipid in Lactone Form] | 6.58% | 95.9% | 99.6% | 99.6% | 2389 corneocytes/ml | 1833 corneocytes/ml | 1528 corneocytes/ml | 205% | 157% | 131% | 255.4 pg/mL | 385.9 pg/mL | 345.1 pg/mL | 98.8% | 101% | 99.1% | Lysis of the fibrin clot ([4]; 4 hours, 30% MS): 15 % relative to TN; Lysis of the fibrin clot ([4]; 24 hours, 30% MS): 33 % relative to TN
CC(CCCCCC/C=C\CCCCCCCC(=O)O)O[C@@H]1O[C@H](CO)[C@@H](O)[C@H](O)[C@H]1O[C@@H]1O[C@H](CO)[C@@H](O)[C@H](O)[C@H]1O (stereo partly drawn) [Sophorolipid in Acid Form] | 86.7% | 99.3% | 99.9% | 99.5% | 2278 corneocytes/ml | 1944 corneocytes/ml | 1555 corneocytes/ml | 195% | 167% | 133% | 795.6 pg/mL | 500.8 pg/mL | 287.2 pg/mL | 99.6% | 99.8% | 98.7% | action on IL-1 release relative to that of lipopolysaccharides (fold) ([3]; 10^-4M): twice; action on IL-1 release compared with lipopolysaccharides ([3]; 10^-5M): equivalent to that of lipopolysaccharides; Lysis of the fibrin clot ([4]; 4 hours, 10% MS): 75 % relative to TN; Lysis of the fibrin clot ([4]; 4 hours, 10-1M): 66 % relative to TN; Lysis of the fibrin clot ([4]; 4 hours, 10^-2M): 5 % relative to TN; Lysis of the fibrin clot ([4]; 4 hours, 10^-3M): 0 % relative to TN; Lysis of the fibrin clot ([4]; 4 hours, 10^-4M): 0 % relative to TN; Lysis of the fibrin clot ([4]; 4 hours, 10^-5M): 0 % relative to TN; Lysis of the fibrin clot ([4]; 24 hours, 10% MS): 90 % relative to TN; Lysis of the fibrin clot ([4]; 24 hours, 10-1M): 80 % relative to TN; Lysis of the fibrin clot ([4]; 24 hours, 10^-2M): 40 % relative to TN; Lysis of the fibrin clot ([4]; 24 hours, 10^-3M): 20 % relative to TN; Lysis of the fibrin clot ([4]; 24 hours, 10^-4M): 5 % relative to TN; Lysis of the fibrin clot ([4]; 24 hours, 10^-5M): 0 % relative to TN
